Test results from article PMC4790851, “Iminosugars Inhibit Dengue Virus Production via Inhibition of ER Alpha-Glucosidases—Not Glycolipid Processing Enzymes” (PLoS Neglected Tropical Diseases, 2016).
Where two headings read alike, the source gives them in different places.

Key:
[1] = molecular target: Human lysosome α-glucosidase (Homo sapiens, UniProt P10253); experiment: In vitro enzyme inhibition; assay type: biochemical
Rat intestinal sucrase = molecular target: T1, Rat intestinal sucrase (Rattus norvegicus, UniProt P23739); experiment: In vitro enzyme inhibition, glucose release from disaccharide; assay type: biochemical
T1 construct: from tissue; host or cells: rat intestine
T1 sequence (P23739 whole entry): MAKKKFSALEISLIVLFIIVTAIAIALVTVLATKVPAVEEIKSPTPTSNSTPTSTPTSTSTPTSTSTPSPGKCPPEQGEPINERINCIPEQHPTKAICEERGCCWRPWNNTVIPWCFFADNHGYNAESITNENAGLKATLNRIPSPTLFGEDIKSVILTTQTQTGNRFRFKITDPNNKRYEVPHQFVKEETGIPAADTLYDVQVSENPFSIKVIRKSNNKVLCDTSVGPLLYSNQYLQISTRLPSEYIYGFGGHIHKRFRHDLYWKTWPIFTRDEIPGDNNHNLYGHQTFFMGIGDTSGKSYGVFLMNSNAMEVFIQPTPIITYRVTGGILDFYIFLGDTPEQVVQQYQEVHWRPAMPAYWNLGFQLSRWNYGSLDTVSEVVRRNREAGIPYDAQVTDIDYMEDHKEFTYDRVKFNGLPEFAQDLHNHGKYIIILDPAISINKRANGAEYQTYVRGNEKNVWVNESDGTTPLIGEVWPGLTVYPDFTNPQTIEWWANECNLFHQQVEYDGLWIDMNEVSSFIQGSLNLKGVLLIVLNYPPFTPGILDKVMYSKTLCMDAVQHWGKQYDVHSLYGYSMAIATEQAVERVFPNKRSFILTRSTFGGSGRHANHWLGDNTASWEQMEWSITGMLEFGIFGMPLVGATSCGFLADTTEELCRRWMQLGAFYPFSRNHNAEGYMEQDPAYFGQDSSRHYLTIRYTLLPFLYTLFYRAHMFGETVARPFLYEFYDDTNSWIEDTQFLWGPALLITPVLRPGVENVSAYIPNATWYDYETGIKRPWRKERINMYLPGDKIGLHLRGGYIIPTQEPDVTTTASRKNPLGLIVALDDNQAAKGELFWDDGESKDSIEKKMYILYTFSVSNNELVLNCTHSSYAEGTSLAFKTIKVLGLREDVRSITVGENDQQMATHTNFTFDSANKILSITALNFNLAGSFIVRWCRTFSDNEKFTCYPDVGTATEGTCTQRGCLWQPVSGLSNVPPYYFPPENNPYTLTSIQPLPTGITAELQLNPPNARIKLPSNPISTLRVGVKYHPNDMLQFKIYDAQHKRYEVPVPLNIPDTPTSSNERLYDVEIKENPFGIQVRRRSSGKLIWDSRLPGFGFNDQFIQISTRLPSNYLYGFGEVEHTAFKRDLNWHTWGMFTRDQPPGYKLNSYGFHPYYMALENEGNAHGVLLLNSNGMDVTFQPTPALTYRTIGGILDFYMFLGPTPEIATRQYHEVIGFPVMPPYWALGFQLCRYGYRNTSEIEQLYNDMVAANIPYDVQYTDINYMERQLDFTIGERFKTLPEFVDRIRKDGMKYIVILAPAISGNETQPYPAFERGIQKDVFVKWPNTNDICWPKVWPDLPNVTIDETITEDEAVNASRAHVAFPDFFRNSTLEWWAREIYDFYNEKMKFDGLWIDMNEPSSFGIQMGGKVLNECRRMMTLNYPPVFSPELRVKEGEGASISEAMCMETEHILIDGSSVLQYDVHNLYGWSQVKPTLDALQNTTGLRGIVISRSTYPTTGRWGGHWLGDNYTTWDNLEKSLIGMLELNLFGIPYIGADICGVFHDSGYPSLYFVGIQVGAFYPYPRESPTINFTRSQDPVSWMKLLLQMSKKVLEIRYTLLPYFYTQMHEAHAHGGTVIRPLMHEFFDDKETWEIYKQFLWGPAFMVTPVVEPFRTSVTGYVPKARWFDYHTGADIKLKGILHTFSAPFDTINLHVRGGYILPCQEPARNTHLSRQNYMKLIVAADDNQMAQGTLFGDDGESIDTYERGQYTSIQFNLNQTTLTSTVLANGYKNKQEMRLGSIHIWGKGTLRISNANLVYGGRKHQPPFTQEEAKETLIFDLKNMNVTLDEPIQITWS

[2] = molecular target: T2, Human lysosome α-galactosidase (Homo sapiens, UniProt P06280); experiment: In vitro enzyme inhibition; assay type: biochemical
T2 sequence (P06280 32-429): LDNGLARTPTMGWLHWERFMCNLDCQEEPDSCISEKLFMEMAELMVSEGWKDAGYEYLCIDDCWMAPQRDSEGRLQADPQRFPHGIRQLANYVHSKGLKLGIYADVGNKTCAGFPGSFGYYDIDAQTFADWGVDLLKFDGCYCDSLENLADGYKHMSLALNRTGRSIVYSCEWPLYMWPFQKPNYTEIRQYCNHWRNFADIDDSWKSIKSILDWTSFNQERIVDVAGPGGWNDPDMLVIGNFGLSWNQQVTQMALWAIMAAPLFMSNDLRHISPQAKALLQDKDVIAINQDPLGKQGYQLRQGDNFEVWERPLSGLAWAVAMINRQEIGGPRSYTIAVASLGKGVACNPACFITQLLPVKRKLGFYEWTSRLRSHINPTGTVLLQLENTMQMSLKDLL

Glucosyltransferase HL60 = molecular target: T3, Glucosyltransferase HL60 (Homo sapiens, UniProt Q16739); experiment: In vitro enzyme inhibition; assay type: biochemical
T3 construct: endogenous in cells; host or cells: HL60
T3 sequence (Q16739 1-394): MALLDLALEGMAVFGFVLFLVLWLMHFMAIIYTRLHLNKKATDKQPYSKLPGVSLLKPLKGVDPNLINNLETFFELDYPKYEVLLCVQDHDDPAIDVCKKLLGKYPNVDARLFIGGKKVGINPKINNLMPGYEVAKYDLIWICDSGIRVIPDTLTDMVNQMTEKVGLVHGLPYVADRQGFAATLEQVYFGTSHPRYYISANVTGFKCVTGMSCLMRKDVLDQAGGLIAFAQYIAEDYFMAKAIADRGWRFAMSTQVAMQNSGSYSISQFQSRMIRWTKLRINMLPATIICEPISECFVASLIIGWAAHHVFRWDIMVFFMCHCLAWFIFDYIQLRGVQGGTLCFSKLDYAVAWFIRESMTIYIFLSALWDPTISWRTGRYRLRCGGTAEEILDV

[3] = molecular target: T4, Mouse ER α-glucosidase II (Mus musculus, UniProt Q8BHN3); experiment: In vitro enzyme inhibition, 4MUG hydrolysis; assay type: biochemical; details: concentration required to inhibit the enzyme to 50% activity
T4 sequence (Q8BHN3 33-944): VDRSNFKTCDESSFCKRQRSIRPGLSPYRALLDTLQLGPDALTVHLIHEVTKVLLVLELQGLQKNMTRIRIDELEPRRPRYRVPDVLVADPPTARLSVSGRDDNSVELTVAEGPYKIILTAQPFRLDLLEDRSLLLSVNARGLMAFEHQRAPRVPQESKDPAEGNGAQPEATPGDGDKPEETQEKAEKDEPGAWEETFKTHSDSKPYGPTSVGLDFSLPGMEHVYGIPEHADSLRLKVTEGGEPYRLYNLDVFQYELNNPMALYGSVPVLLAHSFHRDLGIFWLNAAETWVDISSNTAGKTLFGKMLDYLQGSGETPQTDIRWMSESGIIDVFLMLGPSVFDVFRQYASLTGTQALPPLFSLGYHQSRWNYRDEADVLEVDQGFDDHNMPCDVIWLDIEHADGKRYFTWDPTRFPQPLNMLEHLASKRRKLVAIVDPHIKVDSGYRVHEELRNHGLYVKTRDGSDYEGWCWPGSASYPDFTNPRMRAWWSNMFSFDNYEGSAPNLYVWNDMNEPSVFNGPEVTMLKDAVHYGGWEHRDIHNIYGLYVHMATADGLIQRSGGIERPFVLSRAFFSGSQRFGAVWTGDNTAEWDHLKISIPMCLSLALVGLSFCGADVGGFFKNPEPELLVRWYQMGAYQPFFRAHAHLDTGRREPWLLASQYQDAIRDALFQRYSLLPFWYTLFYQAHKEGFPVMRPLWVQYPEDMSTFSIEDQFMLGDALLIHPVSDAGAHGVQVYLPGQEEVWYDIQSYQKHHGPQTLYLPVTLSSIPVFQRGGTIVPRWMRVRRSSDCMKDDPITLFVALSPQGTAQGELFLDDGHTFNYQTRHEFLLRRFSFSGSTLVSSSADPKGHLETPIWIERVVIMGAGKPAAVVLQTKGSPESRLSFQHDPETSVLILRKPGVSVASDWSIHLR
T4 sequence (O08795 15-521 partner): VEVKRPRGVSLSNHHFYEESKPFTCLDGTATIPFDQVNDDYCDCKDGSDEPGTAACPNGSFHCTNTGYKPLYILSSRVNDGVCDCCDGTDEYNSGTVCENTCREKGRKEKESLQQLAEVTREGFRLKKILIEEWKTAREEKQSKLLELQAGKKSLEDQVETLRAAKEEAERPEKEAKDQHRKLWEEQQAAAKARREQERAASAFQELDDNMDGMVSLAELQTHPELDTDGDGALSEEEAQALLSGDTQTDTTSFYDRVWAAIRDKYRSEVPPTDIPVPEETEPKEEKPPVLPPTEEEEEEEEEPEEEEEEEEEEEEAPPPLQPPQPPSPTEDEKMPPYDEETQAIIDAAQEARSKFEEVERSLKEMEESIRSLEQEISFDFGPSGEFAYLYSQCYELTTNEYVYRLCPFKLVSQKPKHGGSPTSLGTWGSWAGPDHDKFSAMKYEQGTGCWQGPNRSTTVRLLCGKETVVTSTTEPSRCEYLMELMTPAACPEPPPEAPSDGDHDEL
Description: Recombinant Mus musculus ER alpha-glucosidase II inhibition was measured by incubating 20 nM enzyme with various concentrations of inhibitors in 100 mM potassium phosphate pH 7.2 at 37 °C for 5 minutes. Activity was measured by addition of 0.25 mM 4-methylumbelliferyl α-D-glucopyranoside (4MUG) (Sigma Aldrich) in black, non-binding surface-treated microplates (Corning). Fluorescence upon hydrolysis of the 4MUG was measured at λex of 355 nm and λem of 460 nm in a M5 multi-mode plate reader (Molecular Devices) at 37 °C, measuring fluorescence every minute for a total of 30 minutes. The initial velocity was fit in the linear range of measurements, and activity was normalized to the uninhibited control in order to plot activity against the inhibitor concentration. A sigmoidal, four-parameter function with a variable slope was used to determine the EC50 values in Prism (GraphPad).

DENV2 strain 16681 = experiment: In vitro antiviral assay: infectious DENV titer from infected MDMΦs by LLC-MK2 plaque assay; assay type: cell-based, dengue virus serotype 2; details: Dengue virus, DENV2, LLC-MK2, 48 h, MDMΦs infected with DENV2 MOI 1, drug 48 h, infectious titer by plaque assay; table values with 95% confidence interval in parentheses; read-out: EC50
MDMΦs = experiment: Cytotoxicity, MTS cell proliferation assay; assay type: cell-based, human
Description: Cytotoxicity of compounds was assessed by a cell proliferation assay for metabolic activity using a CellTiter 96 AQueous One Solution Cell Proliferation Assay (Promega) as per the manufacturer’s instructions. Briefly, 20 μl of a solution containing tetrazolium compound [3-(4,5-[…])-5-(3-carboxymethoxyphenyl)-2-(4-sulfophenyl)-2H-tetrazolium; MTS] and electron coupling reagent (phenazine ethosulfate) was added to cells covered or suspended in 100 μl of culture medium in a 96-well plate. Samples were incubated for approximately 4 hours (37°C, 5% CO2), and the absorbance at 490 nm (A490) was measured on a SpectraMax M5 microplate reader (Molecular Devices).

[4] = molecular target: T5, Rat intestinal isomaltase (Rattus norvegicus, UniProt P23739); experiment: In vitro enzyme inhibition, glucose release from disaccharide; assay type: biochemical
T5 construct: from tissue; host or cells: rat intestine
T5 sequence (P23739 whole entry): as the sequence (P23739 whole entry) above

Rat intestinal maltase = experiment: as above; assay type: biochemical; details: concentration required to inhibit the enzyme to 50% activity
Description: Inhibition of glucosidases and glycosidases was detected as previously described. Briefly, assays were performed at the optimum pH of each enzyme, and appropriate disaccharide was provided as substrate for glucosidase release assays. Release of D-glucose was measured using a Glucose B-test (Wako Diagnostics). Appropriate p-nitrophenyl glycoside was added as substrate for additional glycosidase assays, and assays were stopped by adding 400 mM Na2CO3. Release of p-nitrophenol was measured spectrophotometrically at 400 nm.

[5] = test system: monosialodihexosylganglioside (GM3) production; experiment: Glycosphingolipid analysis: GM3 levels in MDMΦs by NP-HPLC; assay type: cell-based, human; details: 48 h, uninfected MDMΦ, normalized to untreated controls, mean ± SD, min. 3 donors
DENV = test system: DENV; design: method as in PMID 23070155, PMID 23376501, PMID 22020302, PMID 22867971; details: post-exposure therapeutic administration; cited from earlier work
[6] = concentration required to inhibit the enzyme to 50% activity, read-out: IC50

Compound | IC50 [1] [µM] | IC50 (Rat intestinal sucrase) [µM] | IC50 [2] [µM] | IC50 (Glucosyltransferase HL60) [µM] | IC50 [3] [µM] | EC50 (DENV2 strain 16681) [µM] | MNTD (maximum non-toxic dose tested) (MDMΦs) [µM] | IC50 [4] [µM] | IC50 (Rat intestinal maltase) [µM] | GM3 production (%) ([5]; 100 μM (MNTD)) | IC50 (Rat intestinal sucrase; [6]) [µM] | IC50 [4, 6] [µM] | protection in lethal mouse models of DENV infection (DENV) | IC50 [1, 6] [µM] | IC50 [2, 6] [µM] | GM3 production (%) ([5]; 31.6 μM (MNTD))
O[C@H]1[C@H](O)[C@@H](O)CN2CC[C@H](O)[C@H]12 [Castanospermine, castanospermine] | 2 | 0.28 | > 1000 | > 1000 | 58.9 | 36.4 | 100 | 6.1 | 0.37 | 101.6 ± 6.7 | – | – | – | – | – | –
OC[C@H]1NC[C@H](O)[C@@H](O)[C@H]1O [DGJ, 1-deoxygalactonojirimycin] | – | – | – | – | > 1000 | – | – | – | 362 | – | 340 | > 1000 | – | – | – | –
OC[C@H]1NC[C@H](O)[C@@H](O)[C@@H]1O [DNJ, 1-Deoxynojirimycin] | – | – | – | – | 11.4 | 308 | 10000 | – | 0.2 | – | – | 0.8 | – | – | – | –
COCCCCCCCCCN1C[C@H](O)[C@@H](O)[C@H](O)[C@H]1CO [MON-DNJ, N-(9-methoxynonyl)-DNJ] | – | – | – | – | – | – | – | – | – | – | – | – | protection in lethal mouse models | – | – | –
CCCCCCCCCN1C[C@H](O)[C@@H](O)[C@H](O)[C@H]1CO [NN-DNJ] | – | – | – | – | 3.1 | 1.25 | 31.6 | – | 0.46 | – | 0.74 | 7.3 | – | 0.14 | 765 | 5.9 ± 1.2
